Data reported in ChEMBL document CHEMBL3091357, “Synthesis and biological evaluation of nimesulide based new class of triazole derivatives as potential PDE4B inhibitors against cancer cells” (Bioorg Med Chem Lett, 2013).
Each block holds one compound with its values, some of them ahead of it. Calls of active or inactive are those of the source. No cut-off for these calls is given here.

How the values were obtained:
[1] = biological target: T1, 3',5'-cyclic-AMP phosphodiesterase 4B (Homo sapiens, UniProt Q07343); test: Inhibition of recombinant His-tagged PDE4B1 (unknown origin) expressed in insect Sf9 cells using cAMP as substrate at 30 uM preincubated for 15 mins followed by substrate addition measured after 1 hr by luminescence assay relative to control
[2] = system: HCT-15; test: Cytotoxicity against human HCT15 cells assessed as cell death after 48 hrs by MTT assay; format: functional, cell-based; conditions: HCT-15, 48 h
[3] = system: HCT-15; test: Cytotoxicity against human HCT15 cells assessed as cell death at 25 ug/mL after 48 hrs by MTT assay relative to control; format: functional; conditions: HCT-15, 48 h
[4] = system: HCT-15; test: Cytotoxicity against human HCT15 cells assessed as cell death at 20 ug/mL after 48 hrs by MTT assay relative to control; format: functional; conditions: HCT-15, 48 h
[5] = system: HCT-15; test: Cytotoxicity against human HCT15 cells assessed as cell death at 15 ug/mL after 48 hrs by MTT assay relative to control; format: functional; conditions: HCT-15, 48 h
[6] = system: HCT-15; test: Cytotoxicity against human HCT15 cells assessed as cell death at 10 ug/mL after 48 hrs by MTT assay relative to control; format: functional; conditions: HCT-15, 48 h
[7] = system: HCT-15; test: Cytotoxicity against human HCT15 cells assessed as cell death at 5 ug/mL after 48 hrs by MTT assay relative to control; format: functional; conditions: HCT-15, 48 h
[8] = biological target: T1, 3',5'-cyclic-AMP phosphodiesterase 4B; test: Inhibition of recombinant His-tagged PDE4B1 (unknown origin) expressed in insect Sf9 cells using cAMP as substrate preincubated for 15 mins followed by substrate addition measured after 1 hr by luminescence assay

T1 sequence (Q07343 whole entry): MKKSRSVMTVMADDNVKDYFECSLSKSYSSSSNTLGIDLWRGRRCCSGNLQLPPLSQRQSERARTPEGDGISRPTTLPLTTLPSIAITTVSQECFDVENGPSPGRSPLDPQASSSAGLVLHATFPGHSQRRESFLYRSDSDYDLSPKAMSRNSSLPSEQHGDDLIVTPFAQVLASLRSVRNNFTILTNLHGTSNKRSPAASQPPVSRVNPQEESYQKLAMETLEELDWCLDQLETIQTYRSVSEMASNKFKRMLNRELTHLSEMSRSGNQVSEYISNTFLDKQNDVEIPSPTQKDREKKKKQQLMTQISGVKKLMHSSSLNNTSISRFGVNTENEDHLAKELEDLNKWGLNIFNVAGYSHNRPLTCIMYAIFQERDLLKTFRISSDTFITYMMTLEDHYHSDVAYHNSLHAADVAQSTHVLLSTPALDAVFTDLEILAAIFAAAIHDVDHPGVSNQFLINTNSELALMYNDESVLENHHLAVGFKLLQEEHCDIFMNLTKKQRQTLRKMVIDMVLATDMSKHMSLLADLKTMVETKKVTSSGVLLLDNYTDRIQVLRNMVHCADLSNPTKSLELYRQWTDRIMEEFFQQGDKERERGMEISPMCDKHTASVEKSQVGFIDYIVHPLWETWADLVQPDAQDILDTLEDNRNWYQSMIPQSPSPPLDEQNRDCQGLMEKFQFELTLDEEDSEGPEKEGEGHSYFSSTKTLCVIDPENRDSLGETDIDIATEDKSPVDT

inhibition [1]: inactive
SMILES: CS(=O)(=O)Nc1ccc([N+](=O)[O-])cc1Oc1ccccc1

SMILES: Cc1ccc(-c2cn(CC(=O)Nc3ccc(NS(C)(=O)=O)c(Oc4ccccc4)c3)nn2)cc1
IC50 [2]: 21 µg/mL
mortality at 25 µg/mL [3]: 53%
mortality at 20 µg/mL [4]: 49.6%
mortality at 15 µg/mL [5]: 45.6%
mortality at 10 µg/mL [6]: 40.2%
mortality at 5 µg/mL [7]: 37%
inhibition [1]: 36%

inhibition [1]: 51.3%
SMILES: CS(=O)(=O)Nc1ccc(NC(=O)Cn2cc(COc3ccc(Cl)cc3)nn2)cc1Oc1ccccc1

SMILES: COc1cccc2c1C(=O)c1c(O)c3c(c(O)c1C2=O)C[C@@](O)(C(=O)CO)C[C@@H]3O[C@H]1C[C@H](N)[C@H](O)[C@H](C)O1 [DOXORUBICIN]
IC50 [2]: 90 nM

inhibition [1]: 94.1%
SMILES: COc1ccc(C2CNC(=O)C2)cc1OC1CCCC1 (stereo unspecified)

SMILES: CS(=O)(=O)Nc1ccc(NC(=O)Cn2cc(COc3ccc4ccccc4c3)nn2)cc1Oc1ccccc1
mortality at 25 µg/mL [3]: 33.6%
mortality at 20 µg/mL [4]: 25.3%
mortality at 15 µg/mL [5]: 21.1%
mortality at 10 µg/mL [6]: 14.3%
mortality at 5 µg/mL [7]: 10.6%
inhibition [1]: 59.7%

inhibition [1]: 42.5%
SMILES: CS(=O)(=O)Nc1ccc(NC(=O)Cn2cc(COc3ccccc3Cl)nn2)cc1Oc1ccccc1

inhibition [1]: 32.9%
SMILES: Cc1cc(OCc2cn(CC(=O)Nc3ccc(NS(C)(=O)=O)c(Oc4ccccc4)c3)nn2)ccc1Cl

SMILES: CS(=O)(=O)Nc1ccc(NC(=O)Cn2cc(-c3ccccc3)nn2)cc1Oc1ccccc1
IC50 [2]: 22.4 µg/mL
mortality at 25 µg/mL [3]: 60.1%
mortality at 20 µg/mL [4]: 42.7%
mortality at 15 µg/mL [5]: 31%
mortality at 10 µg/mL [6]: 15.2%
mortality at 5 µg/mL [7]: 10.8%
IC50 [8]: 4920 nM
inhibition [8]: Dose-dependent effect
inhibition [1]: 64.1%

inhibition [1]: 51.2%
SMILES: CS(=O)(=O)Nc1ccc(NC(=O)Cn2cc(COc3ccccc3)nn2)cc1Oc1ccccc1

inhibition [1]: 47.1%
SMILES: CS(=O)(=O)Nc1ccc(NC(=O)Cn2cc(COc3ccc([N+](=O)[O-])cc3)nn2)cc1Oc1ccccc1

inhibition [1]: 56.7%
SMILES: Cc1ccc(OCc2cn(CC(=O)Nc3ccc(NS(C)(=O)=O)c(Oc4ccccc4)c3)nn2)cc1
